Assay results taken from patent US20090054412A1, “Treatment of Sleep Disorders” (priority 2007, published 2009).
Where “and” joins values, the source holds several entries; their conditions need not be identical. Equal entries are not always repeated.

Experiments:
[1] = molecular target: T1, rat GABAA receptors α1β2γ2 (Rattus norvegicus, UniProt P18508+P62813); assay: Stimulation of GABA (EC3-5)-elicited currents in Xenopus oocytes, two-electrode voltage clamp, α1β2γ2; format: cell-based; settings: for Standardized Efficacy: standardized to stimulation by 1 μM diazepam (100%)
T1 construct: expressed in transfected cells; host or cells: Xenopus laevis oocytes, cRNA microinjected
Excerpt: (§1) 7-Chloro-3-(5-dimethylaminomethyl-[1,2,4]oxadiazol-3-yl)-5methyl-4,5-dihydro-imidazol[1,5,-a][1,4]benzodiazepine-6-one was used to test the effects of the compound of formula (II): […]
(§2) Similar procedures were chosen as for the investigation of other GABAA receptor subunit specific substances (e.g., Baur et al., 2005; Mol. Pharmacol. 68, 787-792).
(§3) Lobes of the ovary containing the follicles were obtained by surgical procedures from female Xenopus laevis. Follicles were singled out using a platinum loop. Fifty nL of cRNA solution at a ratio of αx:β2:γ2 of 1:1:5 (3.3-10 nM αx (x=1,2,3,5); 3.3-10 nM β2; 16.7-50 nM γ2) (Boileau et al., 2002; Neuropharmacology 43, 695-700) were microinjected into Xenopus follicles. Several hours after microinjection the follicles were freed of follicular layers and adhering connective tissue by a collagenase/hypertonic shock procedure (Sigel, 1987; J. Physiol.(Land) 386, 73-90). Oocytes were kept at constant 18° C. until measurement (1-4 days) in a modified Barth solution (88 mM NaCl, 1 mM KCl, 2.4 mM NaHCO3, 10 mM Hepes-NaOH (pH 7.5), 0.82 mM MgSO4×7H2O, 0.34 mM Ca(NO3)2×4H2O, 0.41 mM CaCl2×2H2O, 100 U Penicillin/mL, 100 μg Streptomycin/mL, sterile filtered).
(§4) Currents were measured using a home-built amplifier in combination with a xy-recorder or were digitized using a MacLab/200 (AD Instruments) and stored on a computer. Xenopus oocytes were voltage clamped using the two-electrode voltage clamp technique (electrode resistance about 0.8 MΩ) at −80 mV. The medium contained 90 mM NaCl, 1 mM KCl, 1 mM MgCl2, 1 mM CaCl2, 10 mM Na-Hepes (pH 7.4) and 0.5% DMSO.
(§5) GABA was applied for 20-50 seconds without or in combination with other drugs and a washout period of 4 minutes was allowed to ensure full recovery from desensitization, which was experimentally determined. The perfusion solution (6 mL/min) was applied through a glass capillary with an inner diameter of 1.35 mm, the mouth of which was placed about 0.4 mm from the surface of the oocyte. The rate of solution change under our conditions has been estimated 70% within less than 0.5 s (Sigel et al., 1990; Neuron 5, 703-711). The entire perfusion system and the assay chamber were cleaned between drug applications by washing with DMSO.
(§6) Data is given as mean±SD, except in the figures where data is shown for clarity as mean±SEM. Current stimulation was calculated as follows: stimulation (%)=((I(GABA+modulator)−I(GABA))/I(GABA))×100%, where I is the current amplitude. Where indicated, the stimulation was standardized to the stimulation by 1 μM diazepam (100%). To obtain FIGS. 1-4, values for current stimulation obtained at a given concentration of modulator at a given subunit combination were averaged. The data points were fitted with the equation stimulation=efficacy/(1+(potency/concentration of modulator)). The values given in the Tables (Summary) are obtained by fitting individual curves and subsequently averaging efficacy and potency.
GABA (EC3-5) was applied to an oocyte expressing α1β2γ2 GABAA receptors several times until the current response was stable. The GABA (EC3-5) refers to the effective concentration of GABA, which produces a response that is 3-5% of the maximal response to high concentrations of GABA. Such a low concentration of GABA is chosen in order to better see the potentiating effect of positive allosteric modulators.
GABA was then applied in combination with various concentrations of the compound of formula (II) between 0.3 nM and 3,000 nM to produce a cumulative concentration response curve. […] In each batch of oocytes the stimulation by 1 μM diazepam was determined in five ocytes, extent of stimulation averaged and defined as 100%. Where indicated, stimulation by the compound of formula (II) in each batch of ocytes was expressed as a percentage of this value in the corresponding batch.
GABA (EC3-5) was applied to an oocyte expressing α1β2γ2 GABAA receptors several times until the current response was stable.

[2] = molecular target: T2, rat GABAA receptors α2β2γ2 (Rattus norvegicus, UniProt P18508+P23576); assay: Stimulation of GABA (EC3-5)-elicited currents in Xenopus oocytes, two-electrode voltage clamp, α2β2γ2; format: cell-based
T2 construct: expressed in transfected cells; host or cells: Xenopus laevis oocytes, cRNA microinjected
Excerpt: as §1, §2, §3, §4, §5, §6
(§7) Concentration response curves were also performed with oocytes expressing α2β2γ2, α3β2γ2, or α5β2γ2, after establishing the optimal concentration range as indicated above. […] Averaged data of the individual curves summarizing the effects of the compound of formula (II) are shown below for unstandardized and standardized stimulation.
(§8) Concentration response curves were also performed with oocytes expressing α2β2γ2, α3β2γ2, or α5β2γ2.
(§9) Current stimulation by diazepam was determined in each batch of oocytes as follows. GABA (EC3-5) was applied until a stable response was obtained. Subsequently, GABA was applied in combination with 1 μM diazepam.

[3] = molecular target: T3, rat GABAA receptors α3β2γ2 (Rattus norvegicus, UniProt P18508+P20236); assay: Stimulation of GABA (EC3-5)-elicited currents in Xenopus oocytes, two-electrode voltage clamp, α3β2γ2; format: cell-based
T3 construct: expressed in transfected cells; host or cells: Xenopus laevis oocytes, cRNA microinjected
Excerpt: as §1, §2, §3, §4, §5, §6, §7, §8, §9

[4] = molecular target: T4, rat GABAA receptors α5β2γ2 (Rattus norvegicus, UniProt P18508+P19969); assay: Stimulation of GABA (EC3-5)-elicited currents in Xenopus oocytes, two-electrode voltage clamp, α5β2γ2; format: cell-based
T4 construct: expressed in transfected cells; host or cells: Xenopus laevis oocytes, cRNA microinjected
Excerpt: as §1, §2, §3, §4, §5, §6, §7, §8, §9

GABAA receptors = settings: 20 mg, in man, PET; cited from earlier work
[5] = standardized to stimulation by 1 μM diazepam (100%)
[6] = unstandardized current stimulation
[7] = 1 μM, different batches of oocytes, n=5

T2 sequence (P23576 29-451): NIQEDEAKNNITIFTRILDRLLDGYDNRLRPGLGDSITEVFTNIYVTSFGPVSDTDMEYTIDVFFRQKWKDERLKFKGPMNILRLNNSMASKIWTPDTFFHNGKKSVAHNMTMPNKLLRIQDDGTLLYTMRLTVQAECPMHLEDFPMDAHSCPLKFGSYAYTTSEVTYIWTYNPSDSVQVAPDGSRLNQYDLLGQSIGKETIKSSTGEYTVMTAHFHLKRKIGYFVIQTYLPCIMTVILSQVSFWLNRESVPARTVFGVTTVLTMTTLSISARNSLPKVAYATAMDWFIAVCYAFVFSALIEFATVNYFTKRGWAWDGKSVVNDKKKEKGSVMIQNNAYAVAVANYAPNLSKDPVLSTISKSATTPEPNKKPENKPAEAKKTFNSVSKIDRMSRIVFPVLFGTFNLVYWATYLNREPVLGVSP
T2 sequence (P63138 25-474 partner limits assumed): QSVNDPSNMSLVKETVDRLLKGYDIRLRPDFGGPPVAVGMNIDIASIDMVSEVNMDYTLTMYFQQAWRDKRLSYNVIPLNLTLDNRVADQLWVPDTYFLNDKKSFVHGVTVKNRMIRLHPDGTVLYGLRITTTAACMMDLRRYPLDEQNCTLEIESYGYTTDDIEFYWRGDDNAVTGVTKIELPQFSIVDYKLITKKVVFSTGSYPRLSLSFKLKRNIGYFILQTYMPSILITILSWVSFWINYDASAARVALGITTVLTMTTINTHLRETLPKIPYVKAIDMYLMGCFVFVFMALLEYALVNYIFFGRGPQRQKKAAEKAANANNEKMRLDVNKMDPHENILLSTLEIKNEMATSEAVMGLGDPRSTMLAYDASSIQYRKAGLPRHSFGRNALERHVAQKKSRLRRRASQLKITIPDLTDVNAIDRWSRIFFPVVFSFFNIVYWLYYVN
T2 sequence (P18508 39-466): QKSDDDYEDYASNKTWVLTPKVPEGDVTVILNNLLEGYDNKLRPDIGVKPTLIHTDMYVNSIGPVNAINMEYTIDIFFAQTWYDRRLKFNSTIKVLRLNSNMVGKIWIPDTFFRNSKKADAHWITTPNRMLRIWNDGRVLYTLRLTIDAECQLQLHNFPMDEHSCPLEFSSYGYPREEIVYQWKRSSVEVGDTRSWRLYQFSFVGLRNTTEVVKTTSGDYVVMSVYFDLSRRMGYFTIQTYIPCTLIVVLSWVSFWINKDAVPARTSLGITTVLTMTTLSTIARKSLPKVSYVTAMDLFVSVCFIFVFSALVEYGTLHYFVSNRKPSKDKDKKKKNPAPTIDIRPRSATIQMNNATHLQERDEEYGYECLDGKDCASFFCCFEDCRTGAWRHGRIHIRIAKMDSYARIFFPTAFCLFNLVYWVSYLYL
T4 sequence (P19969 32-464 limits assumed): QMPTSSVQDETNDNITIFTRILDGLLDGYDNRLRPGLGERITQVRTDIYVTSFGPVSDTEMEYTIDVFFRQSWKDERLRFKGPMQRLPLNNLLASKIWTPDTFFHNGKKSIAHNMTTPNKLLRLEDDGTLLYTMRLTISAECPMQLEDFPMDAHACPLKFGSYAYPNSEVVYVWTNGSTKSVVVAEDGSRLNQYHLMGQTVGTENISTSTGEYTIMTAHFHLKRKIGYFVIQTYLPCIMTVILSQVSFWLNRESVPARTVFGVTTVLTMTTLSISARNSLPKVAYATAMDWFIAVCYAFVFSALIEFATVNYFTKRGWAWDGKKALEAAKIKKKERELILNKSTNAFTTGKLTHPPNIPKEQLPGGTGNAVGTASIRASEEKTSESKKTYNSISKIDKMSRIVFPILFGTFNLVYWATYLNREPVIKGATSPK
T4 sequence (P63138 25-474 partner limits assumed): as the sequence (P63138 25-474 partner limits assumed) above
T4 sequence (P18508 39-466): as the sequence (P18508 39-466) above
T3 sequence (P20236 29-493): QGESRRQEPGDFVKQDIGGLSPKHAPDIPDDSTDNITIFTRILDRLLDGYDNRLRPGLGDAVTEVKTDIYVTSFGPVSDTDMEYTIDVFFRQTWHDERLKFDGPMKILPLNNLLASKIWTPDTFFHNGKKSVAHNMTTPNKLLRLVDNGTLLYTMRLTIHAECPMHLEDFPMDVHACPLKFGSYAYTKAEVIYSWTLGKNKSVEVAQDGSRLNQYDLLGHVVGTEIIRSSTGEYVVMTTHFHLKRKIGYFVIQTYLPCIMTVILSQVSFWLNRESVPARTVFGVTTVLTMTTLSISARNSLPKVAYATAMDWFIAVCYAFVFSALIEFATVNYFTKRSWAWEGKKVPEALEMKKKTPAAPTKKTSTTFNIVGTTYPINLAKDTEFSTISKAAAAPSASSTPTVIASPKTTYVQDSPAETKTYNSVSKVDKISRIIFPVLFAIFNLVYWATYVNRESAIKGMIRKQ
T3 sequence (P63138 25-474 partner limits assumed): as the sequence (P63138 25-474 partner limits assumed) above
T3 sequence (P18508 39-466): as the sequence (P18508 39-466) above
T1 sequence (P62813 28-455): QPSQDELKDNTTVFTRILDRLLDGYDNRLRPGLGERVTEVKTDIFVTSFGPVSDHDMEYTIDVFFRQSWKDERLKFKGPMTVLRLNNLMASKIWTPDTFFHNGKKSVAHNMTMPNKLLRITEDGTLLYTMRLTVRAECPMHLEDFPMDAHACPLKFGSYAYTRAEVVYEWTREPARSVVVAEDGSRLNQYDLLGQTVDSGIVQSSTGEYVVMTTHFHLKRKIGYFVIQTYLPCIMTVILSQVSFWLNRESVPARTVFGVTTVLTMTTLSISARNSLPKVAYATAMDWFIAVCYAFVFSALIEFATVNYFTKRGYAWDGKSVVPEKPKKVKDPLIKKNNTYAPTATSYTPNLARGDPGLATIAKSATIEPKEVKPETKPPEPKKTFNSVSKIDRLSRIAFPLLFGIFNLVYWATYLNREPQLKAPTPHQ
T1 sequence (P63138 25-474 partner limits assumed): as the sequence (P63138 25-474 partner limits assumed) above
T1 sequence (P18508 39-466): as the sequence (P18508 39-466) above

| SMILES | Intrinsic activity / type of allosteric modulation ([1]; GABAA receptor benzodiazepine site, relative to diazepam) | Receptor subtype affinity ([1]; in comparison to α2β2γ2, α3β2γ2 and α5β2γ2) | Standardized Efficacy ([1]; α1β2γ2) [%] | Standardized Efficacy ([1]; α1β2γ2, listed as zolpidem) [%] | Efficacy ([1]; α1β2γ2, unstandardized current stimulation) [%] | Standardized Efficacy [2, 5] [%] | Efficacy [2, 6] [%] | Standardized Efficacy [3, 5] [%] | Efficacy [3, 6] [%] | Standardized Efficacy [4, 5] [%] | Efficacy [4, 6] [%] | receptor occupancy (GABAA receptors) | Stimulation by 1 μM diazepam ([1]; α1β2γ2, 1 μM, different batches of oocytes, n=5) | Stimulation by 1 μM diazepam [2, 7] | Stimulation by 1 μM diazepam [3, 7] | Stimulation by 1 μM diazepam [4, 7] |
| --- | --- | --- | --- | --- | --- | --- | --- | --- | --- | --- | --- | --- | --- | --- | --- | --- |
| Cc1ccc(-c2nc3ccc(C)cn3c2CC(=O)N(C)C)cc1 [Zolpidem, zolpidem] | full agonist | higher affinity at α1β2γ2 GABAA receptors | 215 ± 74 | 215 | 429 ± 120 | 179 ± 23 | 484 ± 60 | 166 ± 88 | 691 ± 365 | 16 ± 4 | 33 ± 12 | about 20% | – | – | – | – |
| CN1C(=O)CN=C(c2ccccc2)c2cc(Cl)ccc21 [diazepam] | – | – | – | – | – | – | – | – | – | – | – | – | 223+28% and 178+20% | 264+61% and 280+71% and 318+62% | 417+85% and 417+144% | 237+97% and 160+4% |
